Laboratory results published in US20190365675A1, “COMPOSITIONS FOR THE PREVENTION AND/OR TREATMENT OF ALCOHOL USE DISORDERS” (SERVICIO ANDALUZ DE SALUD, priority 2016, published 2019).

Experiments:
MCP-1 = MCP-1 levels (ELISA) in frontal cortex after ethanol intoxication; type: in vivo, Wistar rats; conditions: OEA pre-treatment
Procedure: The animals were treated with intragastric (i.g.) ethanol 3 times a day using an i.g. cannula (16G needle, Fisher Scientific, Waltham, Mass., USA), following a protocol based on a slightly modified standard 4-day alcohol intoxication pattern (Bernier et al., 2002a, b) (FIG. 1A). The ethanol doses were administered every 8 h for a total time of 4 days. The rats treated with ethanol received an initial loading dose of 5 g/kg of ethanol in a 30% solution (w/v) and then a maximum maintenance dose of 3 g/kg, which were determined based on blood ethanol levels (BEL). This repeated standard alcohol intoxication paradigm kept BEL intoxication relatively constant in a range of sedation/ataxia (190 to 430 mg/dl, Table 3), according to the 6-point alcohol intoxication behavior scale (Majchrowicz, 1975). The mean dose of ethanol/rat/day (days 1-4) was 7.06 g/kg, similar to other studies (Obernier et al., 2002a, b). […] The levels of soluble HMGB1, TNF-α, IL-1β and MCP-1 were determined by means of a commercially available enzyme-linked immunosorbent assay kit (ELISA) (Elabscience Biotechnology Co., Ltd., China, for HMGB-1; RayBiotech®, GA, USA, for TNF-α, IL-1β, and MCP-1). The nuclear/cytosol HMGB1 fraction was determined by means of Western blot analysis.

IκBα = IκBα mRNA and protein in frontal cortex cytosol extracts after ethanol intoxication; type: in vivo, Wistar rats; conditions: OEA pre-treatment
Procedure: The animals were treated with intragastric (i.g.) ethanol 3 times a day using an i.g. cannula (16G needle, Fisher Scientific, Waltham, Mass., USA), following a protocol based on a slightly modified standard 4-day alcohol intoxication pattern (Bernier et al., 2002a, b) (FIG. 1A). The ethanol doses were administered every 8 h for a total time of 4 days. The rats treated with ethanol received an initial loading dose of 5 g/kg of ethanol in a 30% solution (w/v) and then a maximum maintenance dose of 3 g/kg, which were determined based on blood ethanol levels (BEL). This repeated standard alcohol intoxication paradigm kept BEL intoxication relatively constant in a range of sedation/ataxia (190 to 430 mg/dl, Table 3), according to the 6-point alcohol intoxication behavior scale (Majchrowicz, 1975). The mean dose of ethanol/rat/day (days 1-4) was 7.06 g/kg, similar to other studies (Obernier et al., 2002a, b). […] The autoradiograph was quantified by densitometry (NIH ImageJ® software, National Biosciences, Lincoln, Nebr. USA) and expressed as optical density (OD). […] The quantitative changes in mRNA levels were estimated by means of RT-PCR, carried out in the presence of the SYBR green primer using a 20-L reaction in a Rotor-Gene (Corbett Research®, Mortlake, NSW, Australia). […]

CCCCCCCC/C=C\CCCCCCCC(=O)NCCO [OEA, oleoylethanolamide]
Ethanol-induced increase in MCP-1 levels (MCP-1): prevented | Ethanol-induced IκBα protein expression (IκBα; frontal cortex cytosol extracts): did not counteract | Ethanol-induced increase in IκBα mRNA levels (IκBα; frontal cortex): did not counteract
